This test has as its system BDF1 mice, B16 melanoma ip, median survival T/C. Briefly: NCI In Vivo Anticancer Drug Screen. Data for tumor model B16 Melanoma (intraperitoneal) in B6D2F1 (BDF1) mice. The following applies: endpoint: median survival time, higher = longer survival. Put shortly: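 Tumor-bearing mice received test compound or vehicle. Survival or tumor size was then measured in both groups. The treated-group figure was divided by the control-group figure.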

The mark [1] stands for this setting: dose: 6.25 mg/kg/injection, schedule: Q01DX009 (ip), vehicle: saline with Tween-80.
Where [2] appears, read: dose: 12.5 mg/kg/injection, schedule: Q01DX009 (ip), vehicle: saline with Tween-80.
[3] abbreviates: dose: 25.0 mg/kg/injection, schedule: Q01DX009 (ip), vehicle: saline with Tween-80.
Where [4] appears, read: dose: 25.0 mg/kg/injection, schedule: Q01DX009 (ip), vehicle: saline.
The mark [5] stands for this setting: dose: 50.0 mg/kg/injection, schedule: Q01DX009 (ip), vehicle: saline.
Where [6] appears, read: dose: 100.0 mg/kg/injection, schedule: Q01DX009 (ip), vehicle: saline.
Where [7] appears, read: dose: 200.0 mg/kg/injection, schedule: Q01DX009 (ip), vehicle: saline.
The mark [8] stands for this setting: dose: 50.0 mg/kg/injection, schedule: Q01DX009 (ip), vehicle: Klucel (hydroxypropylcellulose) (HPC).
Setting [9] is: dose: 100.0 mg/kg/injection, schedule: Q01DX009 (ip), vehicle: Klucel (hydroxypropylcellulose) (HPC).
[10] abbreviates: dose: 200.0 mg/kg/injection, schedule: Q01DX009 (ip), vehicle: Klucel (hydroxypropylcellulose) (HPC).
The mark [11] stands for this setting: dose: 50.0 mg/kg/injection, schedule: Q01DX009 (ip), vehicle: saline with Tween-80.
The mark [12] stands for this setting: dose: 400.0 mg/kg/injection, schedule: Q01DX009 (ip), vehicle: Klucel (hydroxypropylcellulose) (HPC).
The mark [13] stands for this setting: dose: 100.0 mg/kg/injection, schedule: Q01DX009 (ip), vehicle: saline with Tween-80.
The mark [14] stands for this setting: dose: 200.0 mg/kg/injection, schedule: Q01DX009 (ip), vehicle: saline with Tween-80.
Setting [15] is: dose: 25.0 mg/kg/injection, schedule: Q01DX009 (ip), vehicle: Klucel (hydroxypropylcellulose) (HPC).

Drawing on PubChem BioAssay AID192 (DTP/NCI, 2004), this text covers T/C for 26 compounds.

Where “and” joins values, the source holds several entries; their conditions need not be identical. Equal entries are not always repeated. Inconclusive results and toxic doses are left out.

On to `CCCCOc1ccc(NC(N)=Nc2ccc(Cl)cc2)cc1`, for which the T/C was 95 % of control (dose: 3.12 mg/kg/injection, schedule: Q01DX009 (ip), vehicle: saline with Tween-80); 88 % of control under setting [1]; 90 % of control under setting [2]; 86 % of control under setting [3].
For the compound `C(CSC1=NCCN1)CSC1=NCCN1`, the T/C runs as follows: (dose: 6.25 mg/kg/injection, schedule: Q01DX009 (ip), vehicle: saline) 97 % of control and 102 % of control; (dose: 12.5 mg/kg/injection, schedule: Q01DX009 (ip), vehicle: saline) 98 % of control and 107 % of control; under setting [4], 105 % of control and 107 % of control; under setting [5], 96 % of control and 117 % of control; under setting [6], 101 % of control and 112 % of control; under setting [7], 107 % of control.
Turning to `Cc1cnc2c(N)[nH]nc2n1`, the T/C is 97 % of control under setting [8], 106 % of control under setting [9] and 107 % of control under setting [10].
For the compound `COc1ccc(NC(=O)Nc2cccc(Cl)c2C)cc1`, the T/C under setting [3] was 100 % of control and the T/C under setting [11] was 102 % of control.
With `CCOC(=O)CN1CCC(C2(c3cc4ccccc4[nH]3)OCCO2)CC1`, the T/C is, setting by setting: under setting [8], 105 % of control; under setting [9], 93 % of control; under setting [10], 99 % of control.
On to `CS(=O)(=O)c1cc([N+](=O)[O-])cc([N+](=O)[O-])c1Cl`, for which the T/C is 93 % of control (dose: 0.1 mg/kg/injection, schedule: Q01DX009 (ip), vehicle: saline); 93 % of control (dose: 0.2 mg/kg/injection, schedule: Q01DX009 (ip), vehicle: saline); 100 % of control (dose: 0.4 mg/kg/injection, schedule: Q01DX009 (ip), vehicle: saline); 95 % of control (dose: 0.8 mg/kg/injection, schedule: Q01DX009 (ip), vehicle: saline); 91 % of control (dose: 1.25 mg/kg/injection, schedule: Q01DX009 (ip), vehicle: saline with Tween-80); 86 % of control (dose: 2.5 mg/kg/injection, schedule: Q01DX009 (ip), vehicle: saline with Tween-80).
Take `CC(=O)OC(CC(O)(C(F)(F)F)C(F)(F)F)C(C)(C)C` (stereo unspecified): the T/C runs as follows: under setting [2], 120 % of control; (dose: 12.5 mg/kg/injection, schedule: Q04DX003 (ip), vehicle: saline with Tween-80) 105 % of control; under setting [3], 117 % of control; (dose: 25.0 mg/kg/injection, schedule: Q04DX003 (ip), vehicle: saline with Tween-80) 105 % of control; under setting [11], 97 % of control; (dose: 50.0 mg/kg/injection, schedule: Q04DX003 (ip), vehicle: saline with Tween-80) 117 % of control.
Consider `COC(=O)c1ccccc1NC(=O)Nc1ccccc1`, for which the T/C runs as follows: under setting [9], 110 % of control; under setting [10], 105 % of control; under setting [12], 99 % of control.
For `CC(C)(C)OC(=O)NC(CCC(N)=O)C(=O)O` (stereo unspecified), the T/C is 96 % of control under setting [5], 97 % of control under setting [6] and 96 % of control under setting [7].
For `CN(C)CCCC#N`, the T/C reads like this: under setting [4], 100 % of control; under setting [5], 100 % of control; under setting [6], 100 % of control.
As for `CN(C)c1ccc(/C=C/c2cc[n+](C)cc2)cc1`, the T/C was 95 % of control (dose: 1.32 mg/kg/injection, schedule: Q04DX003 (ip), vehicle: saline with Tween-80); 150 % of control (dose: 4.0 mg/kg/injection, schedule: Q04DX003 (ip), vehicle: saline with Tween-80); 117 % of control (dose: 8.0 mg/kg/injection, schedule: Q04DX003 (ip), vehicle: saline with Tween-80).
For `CC1C2CCC(C2)C1C(=O)O` (stereo unspecified), the T/C is, setting by setting: (dose: 100.0 mg/kg/injection, schedule: Q04DX003 (ip), vehicle: other) 102 % of control; (dose: 200.0 mg/kg/injection, schedule: Q04DX003 (ip), vehicle: other) 102 % of control; (dose: 400.0 mg/kg/injection, schedule: Q04DX003 (ip), vehicle: other) 89 % of control.
With `CCN(C(=O)Nc1cccc(Cl)c1)c1ccccc1`, the T/C by setting is: under setting [13], 102 % of control; under setting [14], 100 % of control; (dose: 400.0 mg/kg/injection, schedule: Q01DX009 (ip), vehicle: saline with Tween-80) 110 % of control.
For the compound `O=C1NC2(CCCCC2)NC12CCCCC2`, the T/C under setting [4] was 102 % of control; the T/C under setting [5] is 97 % of control; the T/C under setting [6] is 97 % of control; the T/C (dose: 150.0 mg/kg/injection, schedule: Q01DX009 (ip), vehicle: saline) was 94 % of control; the T/C (dose: 225.0 mg/kg/injection, schedule: Q01DX009 (ip), vehicle: saline) is 86 % of control.
For `CCCCCCn1c(O)c(C=N)c(=O)[nH]c1=O`, the T/C by setting is: under setting [9], 95 % of control; under setting [10], 96 % of control; under setting [12], 112 % of control.
On to `CC(C)CCC1(CCBr)C(=O)NC(=Nc2ccccc2)NC1=O` (stereo unspecified), for which the T/C is, setting by setting: under setting [3], 86 % of control; under setting [11], 106 % of control; under setting [13], 96 % of control; under setting [14], 96 % of control.
`CSc1ccc(NC(=O)CCl)cc1`: the T/C was 95 % of control under setting [2], 105 % of control under setting [3] and 96 % of control under setting [11].
`Cc1ccc(NC(=O)CCl)cc1Cl`: the T/C under setting [3] was 97 % of control, the T/C under setting [11] is 102 % of control and the T/C under setting [13] was 101 % of control.
On to `ClCCN(CCCl)CCN1c2ccccc2Sc2ccccc21`, for which the T/C runs as follows: (dose: 1.56 mg/kg/injection, schedule: Q01DX009 (ip), vehicle: saline with Tween-80) 105 % of control and 122 % of control; (dose: 3.12 mg/kg/injection, schedule: Q04DX003 (ip), vehicle: Klucel (hydroxypropylcellulose) (HPC)) 107 % of control; under setting [1], 123 % of control; (dose: 6.25 mg/kg/injection, schedule: Q04DX003 (ip), vehicle: Klucel (hydroxypropylcellulose) (HPC)) 115 % of control.
As for `Clc1ccc(Cl)c(NNc2cc(Cl)ccc2Cl)c1`, the T/C under setting [15] is 101 % of control, the T/C under setting [8] was 95 % of control and the T/C under setting [9] is 101 % of control.
Consider `Cc1ccc(S(=O)(=O)Oc2ccc(-c3ccc(OS(=O)(=O)c4ccc(C)cc4)cc3)cc2)cc1`, for which the T/C was 105 % of control under setting [11] and 90 % of control under setting [13].
As to `CCC1(C)CC(=O)NC(=O)C1`, the T/C (dose: 0.93 mg/kg/injection, schedule: Q01DX009 (ip), vehicle: saline) was 110 % of control; the T/C (dose: 1.87 mg/kg/injection, schedule: Q01DX009 (ip), vehicle: saline) was 97 % of control; the T/C (dose: 3.75 mg/kg/injection, schedule: Q01DX009 (ip), vehicle: saline) was 110 % of control; the T/C (dose: 7.5 mg/kg/injection, schedule: Q01DX009 (ip), vehicle: saline) was 107 % of control; the T/C (dose: 15.0 mg/kg/injection, schedule: Q01DX009 (ip), vehicle: saline) is 107 % of control.
Take `CC(C)C(NC(=O)c1ccccc1)C(=O)O` (stereo unspecified): the T/C is 111 % of control (dose: 25.0 mg/kg/injection, schedule: Q04DX003 (ip), vehicle: Klucel (hydroxypropylcellulose) (HPC)); 95 % of control under setting [11]; 100 % of control (dose: 50.0 mg/kg/injection, schedule: Q04DX003 (ip), vehicle: Klucel (hydroxypropylcellulose) (HPC)); 103 % of control under setting [9]; 93 % of control under setting [13]; 86 % of control (dose: 100.0 mg/kg/injection, schedule: Q04DX003 (ip), vehicle: Klucel (hydroxypropylcellulose) (HPC)). Besides, the T/C under setting [10] is 96 % of control.
With `Cc1cnccc1Br`, the T/C is 96 % of control (dose: 25.0 mg/kg/injection, schedule: Q01DX009 (ip), vehicle: water) and 97 % of control (dose: 50.0 mg/kg/injection, schedule: Q01DX009 (ip), vehicle: water).
Regarding `O.O.O=c1[nH]cc(CO)c(=O)[nH]1.[NH2-].[NH2-].[Pt+2]`, the T/C was 107 % of control (dose: 3.12 mg/kg/injection, schedule: Q01DX009 (ip), vehicle: Klucel (hydroxypropylcellulose) (HPC)); 106 % of control (dose: 6.25 mg/kg/injection, schedule: Q01DX009 (ip), vehicle: Klucel (hydroxypropylcellulose) (HPC)); 185 % of control under setting [15].
For the compound `COC1C(O)C(C)OC(O[C@@H]2C[C@H]3CC[C@@H]4[C@H](CC[C@]5(C)[C@@H](C6=CC(=O)OC6)CC[C@]45O)[C@@]3(C)[C@H](O)C2)C1O` (stereo partly specified), the T/C (dose: 12.5 mg/kg/injection, schedule: Q01DX009 (ip), vehicle: Klucel (hydroxypropylcellulose) (HPC)) is 96 % of control; the T/C under setting [15] was 87 % of control; the T/C under setting [8] is 95 % of control; the T/C under setting [9] is 98 % of control.
